{"source": "patent US20230399341A1", "about": "“7-PHENYL SUBSTITUTED 2-AMINOQUINAZOLINE INHIBITORS OF HPK1” (MERCK SHARP & DOHME LLC, priority 2020, published 2023)", "target": "T1, Human HPK1, catalytic domain (Homo sapiens, UniProt Q92918)", "T1 sequence (Q92918 1-346)": "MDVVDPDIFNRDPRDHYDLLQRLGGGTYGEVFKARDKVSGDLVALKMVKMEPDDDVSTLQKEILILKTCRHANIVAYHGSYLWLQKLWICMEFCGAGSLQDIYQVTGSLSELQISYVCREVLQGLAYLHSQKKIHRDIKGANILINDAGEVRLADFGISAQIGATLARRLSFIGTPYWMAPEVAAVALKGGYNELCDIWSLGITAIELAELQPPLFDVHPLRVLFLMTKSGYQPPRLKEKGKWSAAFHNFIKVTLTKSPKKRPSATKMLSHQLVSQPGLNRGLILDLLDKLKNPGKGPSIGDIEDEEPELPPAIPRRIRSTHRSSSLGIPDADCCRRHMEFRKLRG", "experiment": "HPK1-SLP76 TR-FRET Assay", "format": "biochemical", "settings": "75 pM HPK1, ATP 10 uM, SLP76 10 nM, 30 min pre-incubation, 60 min reaction"}
{"smiles": "CCS(=O)(=O)Cc1ccc(Nc2ncc3c(N)c(F)c(-c4cnc5c(c4C)NCC(C)O5)cc3n2)c(F)c1", "note": "(single isomer, unassigned) [Compound 2-129, (R or S)-7-(3,8-dimethyl-2,3-dihydro-1H-pyrido[2,3-b][1,4]oxazin-7-yl)-N2-(4-((ethylsulfonyl)methyl)-2-fluorophenyl)-6-fluoroquinazoline-2,5-diamine]", "values": [{"measurement": "IC50", "result": 0.454, "unit": "nM"}]}
{"smiles": "COc1cc2c(cc1Nc1ncc3ccc(N[C@H]4CCN(C(=O)C5CC5)C4)cc3n1)CN(C)CC2", "note": "[Compound 3-22, cyclopropyl[(3S)-3-({2-[(6-meth-oxy-2-methyl-1,2,3,4-tetrahydro-isoquinolin-7-yl)amino]quinaz-olin-7-yl}amino)pyrrolidin-1-yl]-methanone]", "values": [{"measurement": "IC50", "result": 535, "unit": "nM"}]}
{"smiles": "COc1cc2c(cc1Nc1ncc3ccc(NC4CCN(C)C4=O)cc3n1)CN(C)CC2", "note": "(racemic) [Compound 3-56, (S and R)-3-({2-[(6-methoxy-2-methyl-1,2,3,4-tetrahydroiso-quinolin-7-yl)amino]quinazolin-7-yl}amino)-1-methylpyrrolidin-2-one]", "values": [{"measurement": "IC50", "result": 97.6, "unit": "nM"}]}
{"smiles": "COc1cc2c(cc1Nc1ncc3ccc(-c4cccc(CO)c4)cc3n1)CNCC2", "note": "[Compound 1-60, (3-{2-[(6-methoxy-1,2,3,4-tetrahydroisoquinolin-7-yl)amino]quinazolin-7-yl}phenyl)methanol]", "values": [{"measurement": "IC50", "result": 20.5, "unit": "nM"}]}
{"smiles": "Cc1c(-c2c(F)c(N)c3cnc(Nc4ccc(CS(C)(=O)=O)cc4F)nc3c2Cl)cnc2c1NCCO2", "note": "(single isomer, unassigned) [Compound 2-131, 8-chloro-6-fluoro-N2-(2-fluoro-4-((methylsulfonyl)methyl)phenyl)-7-(8-methyl-2,3-dihydro-1H-pyrido[2,3-b][1,4]oxazin-7-yl)quinazoline-2,5-diamine]", "values": [{"measurement": "IC50", "result": 0.126, "unit": "nM"}]}
{"smiles": "COc1cc2c(cc1Nc1ncc3c(N)cc(-c4c(C)cccc4F)cc3n1)CN(C)CC2", "note": "[Compound 2-38, 7-(2-fluoro-6-methylphenyl)-N^2-(6-methoxy-2-methyl-1,2,3,4-tetrahydroisoquinolin-7-yl)quinazoline-2,5-diamine]", "values": [{"measurement": "IC50", "result": 35.1, "unit": "nM"}]}
{"smiles": "Cc1c(-c2cc3nc(Nc4ccc5c(c4)CN(C)CC5)ncc3c(N)c2F)cnc2c1NCC(C)(C)O2", "note": "[Compound 2-166, 6-fluoro-N~2~-(2-methyl-1,2,3,4-tetrahydroisoquinolin-7-yl)-7-(3,3,8-trimethyl-2,3-dihydro-1H-pyrido[2,3-b][1,4]oxazin-7-yl)quinazoline-2,5-diamine]", "values": [{"measurement": "IC50", "result": 0.0589, "unit": "nM"}]}
{"smiles": "COc1cc(C(C)S(C)(=O)=O)ccc1Nc1ncc2c(N)c(F)c(-c3cnc4c(c3C)NCCO4)cc2n1", "note": "(single isomer, unassigned) [Compound 2-56, (R or S)-6-fluoro-N˜2˜-{2-methoxy-4-[1-(methylsulfonyl)ethyl]phenyl}-7-(8-methyl-2,3-dihydro-1H-pyrido[2,3-b][1,4]oxazin-7-yl)quinazoline-2,5-diamine]", "values": [{"measurement": "IC50", "result": 0.102, "unit": "nM"}]}
{"smiles": "COc1cc2c(cc1Nc1ncc3ccc(-c4ccc5c(c4)OCO5)cc3n1)CNCC2", "note": "[Compound 1-71, 7-(2H-1,3-benzodioxol-5-yl)-N-(6-methoxy-1,2,3,4-tetrahydroisoquinolin-7-yl)quinazolin-2-amine]", "values": [{"measurement": "IC50", "result": 138, "unit": "nM"}]}
{"smiles": "Cc1c(-c2c(F)c(N)c3cnc(Nc4ccc(N5CCOC5=O)cc4)nc3c2Cl)cnc2c1NCCO2", "note": "(single isomer, unassigned) [Compound 2-156]", "values": [{"measurement": "IC50", "result": 0.235, "unit": "nM"}]}
{"smiles": "Cc1c(-c2cc3nc(Nc4ccc(N5CCOC5=O)cc4)ncc3c(N)c2F)cnc2c1NCCO2", "note": "[Compound 2-67, 3-(4-{[5-amino-6-fluoro-7-(8-methyl-2,3-dihydro-1H-pyrido[2,3-b][1,4]oxazin-7-yl)quinazolin-2-yl]amino}phenyl)-1,3-oxazolidin-2-one]", "values": [{"measurement": "IC50", "result": 0.0508, "unit": "nM"}]}
{"smiles": "COc1cc(C)ccc1Nc1ncc2c(N)c(F)c(-c3cnc4c(c3C)NCCO4)cc2n1", "note": "[Compound 2-177, 6-fluoro-N~2~-(2-methoxy-4-methylphenyl)-7-(8-methyl-2,3-dihydro-1H-pyrido[2,3-b][1,4]oxazin-7-yl)quinazoline-2,5-diamine]", "values": [{"measurement": "IC50", "result": 4.08, "unit": "nM"}]}
{"smiles": "Cc1c(-c2cc3nc(Nc4ccc5c(c4)C(C)(C)OC5=O)ncc3cc2F)cnc2c1NCCO2", "note": "[Compound 1-112, 5-{[6-fluoro-7-(8-methyl-2,3-dihydro-1H-pyrido[2,3-b][1,4]oxazin-7-yl)quinazolin-2-yl]amino}-3,3-dimethyl-2-benzofuran-1(3H)-one]", "values": [{"measurement": "IC50", "result": 5.2, "unit": "nM"}]}
{"smiles": "CC(=O)NC1CCc2cc(Nc3ncc4c(N)c(F)c(-c5cnc6c(c5C)NCCO6)cc4n3)ccc21", "note": "(single isomer, unassigned) [Compound 2-11, (S or R)—N-(5-((5-amino-6-fluoro-7-(8-methyl-2,3-dihydro-1H-pyrido[2,3-b][1,4]oxazin-7-yl)quinazolin-2-yl)amino)-2,3-dihydro-1H-inden-1-yl)acetamide]", "values": [{"measurement": "IC50", "result": 0.0821, "unit": "nM"}]}
{"smiles": "COc1cc2c(cc1Nc1ncc3ccc(-c4cncc(NS(=O)(=O)C(C)C)c4)cc3n1)CNCC2", "note": "[Compound 1-51, N-(5-{2-[(6-methoxy-1,2,3,4-tetrahydroisoquinolin-7-yl)amino]quinazolin-7-yl}pyridin-3-yl)propane-2-sulfonamide]", "values": [{"measurement": "IC50", "result": 48, "unit": "nM"}]}
{"smiles": "CCC1COC(=O)N1c1cc(N)c2cnc(Nc3cc4c(cc3OC)CCN(C)C4)nc2c1", "note": "(single isomer, unassigned) [Compound 3-15, (S or R)-3-{5-amino-2-[(6-methoxy-2-methyl-1,2,3,4-tetrahydroisoquinolin-7-yl)amino]quinazolin-7-yl}-4-ethyl-1,3-oxazolidin-2-one]", "values": [{"measurement": "IC50", "result": 3.24, "unit": "nM"}]}
{"smiles": "COc1cc2c(cc1Nc1ncc3ccc(-c4cccc(C#N)c4)cc3n1)CNCC2", "note": "[Compound 1-65, 3-{2-[(6-methoxy-1,2,3,4-tetrahydroisoquinolin-7-yl)amino]quinazolin-7-yl}benzonitrile]", "values": [{"measurement": "IC50", "result": 120, "unit": "nM"}]}
{"smiles": "CCc1ccc(Nc2ncc3c(N)c(F)c(-c4cnc5c(c4C)NCCO5)cc3n2)cn1", "note": "[Compound 2-173, N~2~-(6-ethylpyridin-3-yl)-6-fluoro-7-(8-methyl-2,3-dihydro-1H-pyrido[2,3-b][1,4]oxazin-7-yl)quinazoline-2,5-diamine]", "values": [{"measurement": "IC50", "result": 0.128, "unit": "nM"}]}
{"smiles": "COc1cc2c(cc1Nc1ncc3c(N)cc(-c4cncc(N)c4C)cc3n1)CN(C)CC2", "note": "[Compound 2-39, 7-(5-amino-4-methylpyridin-3-yl)-N~2~- (6-methoxy-2-methyl-1,2,3,4-tetrahydroisoquinolin-7-yl)quinazoline-2,5-diamine]", "values": [{"measurement": "IC50", "result": 0.942, "unit": "nM"}]}
{"smiles": "Cc1c(-c2cc3nc(Nc4ccc5c(c4)CN(CC(C)(C)O)C5=O)ncc3cc2F)cnc2c1NCCO2", "note": "[Compound 1-111, 5-{[6-fluoro-7-(8-methyl-2,3-dihydro-1H-pyrido[2,3-b][1,4]oxazin-7-yl)quinazolin-2-yl]amino}-2-(2-hydroxy-2-methylpropyl)-2,3-dihydro-1H-isoindol-1-one]", "values": [{"measurement": "IC50", "result": 0.766, "unit": "nM"}]}
{"smiles": "CNC(=O)C1(c2ccc(Nc3ncc4cc(F)c(-c5cnc6c(c5C)NCCO6)cc4n3)cc2)CCC1", "note": "[Compound 1-121, 1-(4-{[6-fluoro-7-(8-methyl-2,3-dihydro-1H-pyrido[2,3-b][1,4]oxazin-7-yl)quinazolin-2-yl]amino}phenyl)-N-methylcyclobutane-1-carboxamide]", "values": [{"measurement": "IC50", "result": 0.256, "unit": "nM"}]}
{"smiles": "COc1cc2c(cc1Nc1ncc3ccc(-c4ccccc4)cc3n1)CN(C)CC2", "note": "[Compound 1-1, N-(6-methoxy-2-methyl-1,2,3,4-tetrahydroisoquinolin-7-yl)-7-phenylquinazolin-2-amine]", "values": [{"measurement": "IC50", "result": 140, "unit": "nM"}]}
{"smiles": "COc1cc2c(cc1Nc1ncc3ccc(-c4c[nH]nc4C)cc3n1)CN(C)CC2", "note": "[Compound 1-105, N-(6-methoxy-2-methyl-1,2,3,4-tetrahydroisoquinolin-7-yl)-7-(3-methyl-1H-pyrazol-4-yl)quinazolin-2-amine]", "values": [{"measurement": "IC50", "result": 196, "unit": "nM"}]}
{"smiles": "COc1ccc(Nc2ncc3c(N)c(F)c(-c4cnc5c(c4C)NCCO5)cc3n2)c(C)n1", "note": "[Compound 2-77, 6-fluoro-N~2~-(6-methoxy-2-methylpyridin-3-yl)-7-(8-methyl-2,3-dihydro-1H-pyrido[2,3-b][1,4]oxazin-7-yl)quinazoline-2,5-diamine]", "values": [{"measurement": "IC50", "result": 0.782, "unit": "nM"}]}
{"smiles": "COc1cc2c(cc1Nc1ncc3ccc(Oc4cn[nH]c4)cc3n1)CN(C)CC2", "note": "[Compound 4-5, N-(6-methoxy-2-methyl-1,2,3,4-tetrahydroisoquin-olin-7-yl)-7-[(1H-pyrazol-4-yl)oxy]quinazolin-2-amine]", "values": [{"measurement": "IC50", "result": 258, "unit": "nM"}]}
{"smiles": "CNC(=O)c1ccc(-c2ccc3cnc(Nc4cc5c(cc4OC)CCN(C)C5)nc3c2)cn1", "note": "[Compound 1-21, 5-{2-[(6-methoxy-2-methyl-1,2,3,4-tetrahydroisoquinolin-7-yl)amino]quinazolin-7-yl}-N-methylpyridine-2-carboxamide]", "values": [{"measurement": "IC50", "result": 294, "unit": "nM"}]}
{"smiles": "Cc1c(-c2cc3nc(Nc4ccc5c(c4)CN(C)C5=O)ncc3c(N)c2F)cnc2c1NCCO2", "note": "[Compound 2-78, 5-{[5-amino-6-fluoro-7-(8-methyl-2,3-dihydro-1H-pyrido[2,3-b][1,4]oxazin-7-yl)quinazolin-2-yl]amino}-2-methyl-2,3-dihydro-1H-isoindol-1-one]", "values": [{"measurement": "IC50", "result": 0.0198, "unit": "nM"}]}
{"smiles": "CNC(=O)c1ccc(Nc2ncc3c(N)cc(N4C(=O)OC[C@@H]4C)cc3n2)cc1", "note": "[Compound 3-79]", "values": [{"measurement": "IC50", "result": 0.255, "unit": "nM"}]}
{"smiles": "Cc1c(-c2c(F)c(N)c3cnc(Nc4ccc(N5CCOC5=O)cc4)nc3c2Cl)cnc2c1NCCO2", "note": "[Compound 2-159]", "values": [{"measurement": "IC50", "result": 47, "unit": "nM"}]}
{"smiles": "CCNC(=O)c1ccc(-c2ccc3cnc(Nc4cc5c(cc4OC)CCN(C)C5)nc3c2)cn1", "note": "[Compound 1-23, N-ethyl-5-{2-[(6-methoxy-2-methyl-1,2,3,4-tetrahydroisoquinolin-7-yl)amino]quinazolin-7-yl}pyridine-2-carboxamide]", "values": [{"measurement": "IC50", "result": 693, "unit": "nM"}]}
{"smiles": "COc1cc2c(cc1Nc1ncc3ccc([C@H]4CC[C@H](N)CC4)cc3n1)CN(C)CC2", "note": "[Compound 5-1, 7-((1r,4r)-4-aminocyclohexyl)-N-(6-methoxy-2-methyl-1,2,3,4-tetrahydroisoquinolin-7-yl)quinazolin-2-amine]", "values": [{"measurement": "IC50", "result": 662, "unit": "nM"}]}
